Measurements reported in patent publication US10533161B2, “NADPH oxidase proteins” (Universite Grenoble Alpes, priority 2014, dated 2020).
“Also recorded” adds a separate entry of the source.

How the values were obtained:
[1] = tested on: SpNox; assay: NADPH oxidase activity of SpNox by colorimetry (NBT reduction, 96-well plate); format: biochemical, Streptococcus pneumoniae; details: absorbance at 560 nm, 5 concentrations 0.01-100 μM (DPI 0.005-50 μM), triplicate
Protocol: The oxidase activity is determined by measuring the kinetics of reduction of NBT by the O2.^− ions, by monitoring the increase in absorbance at 560 nm (molar extinction coefficient of NBT: ε560=30 000 mM^−1.cm^−1). It is also possible to use a wavelength of 550 nm SpNox is incubated with a reaction mixture containing the molecule to be tested, NBT, FAD and the protein storage buffer for 5 to 20 min at 25° C. The reaction is then started by adding NADPH.
The NADPH oxidase activity is then quantified at the end point by determining the intensity of the coloration compared to a positive control. The positive control is carried out with the SpNox protein alone, without the molecule to be tested.
The compounds present in each well of the plate are, as final concentration: • 0.1 μg of SpNox; • 2 μM of FAD; • 125 μM of NBT; • 150 μM NADPH; • Molecule A; • SpNox storage buffer q.s. 200 μL.
All the experiments were carried out in triplicate and each molecule was tested at 5 different concentrations. The concentration range is deliberately wide so as to be able to include the possible IC50 values of each molecule. The concentrations selected are: 0.01-0.1-1-10-100 μM.

[2] = tested on: eukaryotic NOX; details: commercial molecules targeting the eukaryotic NOX; cited from earlier work

SMILES | Effect on the NADPH oxidase activity of SpNox [1] | Property (NADPH oxidase activity of the eukaryotic NOX) [2]
Cc1ccccc1-n1sc2cc(F)ccc2c1=O [Thr101] | inhibitors of SpNox | Inhibitor
Oc1cc(O)c2c(c1)O[C@H](c1ccc(O)c(O)c1)[C@@H](O)C2 [Catechin] | inhibitors of SpNox | Inhibitor
O=c1c2ccccc2[se]n1-c1ccccc1 [Ebselen] | inhibitors of SpNox | Inhibitor
CC1=C(O)C(=O)C=C2C1=CC=C1[C@@]2(C)CC[C@@]2(C)[C@@H]3C[C@](C)(C(=O)O)CC[C@]3(C)CC[C@]12C [Celastrol] | inhibitors of SpNox | Inhibitor
c1ccc(Cn2nnc3c(Sc4nc5ccccc5o4)ncnc32)cc1 [VAS2870] |  | Inhibitor
O=C(O[C@@H]1Cc2c(O)cc(O)cc2O[C@@H]1c1ccc(O)c(O)c1)c1cc(O)c(O)c(O)c1 [Epicatechin gallate] | inhibitors of SpNox | Inhibitor
c1ccc2c(c1)[IH]c1ccccc1-2 [DPI, diphenyleneiodonium chloride] | inhibits the reaction; also recorded: inhibitory effect; also recorded: inhibitors of SpNox | Inhibitor
CCCCC/C=C\C/C=C\C/C=C\C/C=C\CCCC(=O)O [Arachidonic acid (AA), Arachidonic acid] | stimulates the production of superoxide; also recorded: activator of SpNox | Activator
